# Patent publication US6599930B2, “Coniosetin and derivatives thereof, process for the preparation and the use thereof” (Aventis Pharma Deutschland GmbH, priority 2000, dated 2003)
# Read-outs that look alike come from different tables or passages of the source.
# Experiments:
# [1] = tested on: Candida albicans; test: Agar diffusion test; type: cell-based; settings: for zone of inhibition at 10000 µM: 16 h, C. albicans, 37° C., 16 hours, read-out: Zone of inhibition, diameter
# Method: (§1) Agar plates were prepared with a 2 ml inoculum of Staphylococcus aureus in 200 ml of agar solution, a 2 ml inoculum of Escherichia coli in 200 ml of agar; a 2 ml inoculum of Candida albicans in 200 ml of agar solution; a 1 ml inoculum of Aspergillus niger in 200 ml of agar solution and a 3 ml inoculum of Streptomyces murinus in 200 ml of agar solution. The coniosetin was applied in a 10 mM solution to disks with a diameter of 6 mm and placed on the agar plate. The inoculated Staphylococcus, E. coli and Candida plates were incubated at 37° C. for 16 hours, the A. niger plate was incubated at 28° C. for 40 hours, and the Streptomyces plate was incubated at 28° C. for 16 hours. Zones of inhibition with the following diameters (mm) were then observed.
# [2] = tested on: Staphylococcus aureus; test: Agar diffusion test; type: cell-based; settings: 16 h, S. aureus, 37° C., read-out: Zone of inhibition, diameter
# Method: as §1
# [3] = tested on: Escherichia coli; test: Agar diffusion test; type: cell-based; settings: E. coli, 37° C., 16 hours
# Method: as §1
# [4] = tested on: Streptomyces murinus; test: Agar diffusion test; type: cell-based; settings: 16 h, S. murinus, 28° C., read-out: Zone of inhibition, diameter
# Method: as §1
# [5] = tested on: Aspergillus niger; test: Agar diffusion test; type: cell-based; settings: for zone of inhibition at 10000 µM: 40 h, A. niger, 28° C., 40 hours, read-out: Zone of inhibition, diameter
# Method: as §1
# [6] = Tolerability; settings: at the effective concentration and at higher concentrations
# [7] = tested on: S. agalactiae; test: MIC, serial dilution test; type: cell-based; settings: Streptococcus agalactiae, ery R
# From the text: (§2) Table 1 summarizes the minimum inhibitory concentrations (MIC) of coniosetin by way of example.
# [8] = tested on: Staphylococcus aureus; test: MIC, serial dilution test; type: cell-based
# From the text: as §2
# [9] = tested on: Escherichia coli; test: MIC, serial dilution test; type: cell-based; settings: 18 h
# From the text: as §2
# [10] = tested on: S. pneumoniae; test: MIC, serial dilution test; type: cell-based; settings: Streptococcus pneumoniae
# From the text: as §2
# [11] = tested on: S. mitis; test: MIC, serial dilution test; type: cell-based; settings: Streptococcus mitis
# From the text: as §2
# [12] = tested on: S. pyogenes; test: MIC, serial dilution test; type: cell-based; settings: Streptococcus pyogenes
# From the text: as §2
# [13] = tested on: Enterococcus faecalis; test: MIC, serial dilution test; type: cell-based
# From the text: as §2
# [14] = tested on: S. sanguis; test: MIC, serial dilution test; type: cell-based; settings: ery R
# From the text: as §2
# [15] = tested on: Enterococcus faecium; test: MIC, serial dilution test; type: cell-based; settings: teiR vanR eryR tetR
# From the text: as §2
# [16] = tested on: S. epidermidis; test: MIC, serial dilution test; type: cell-based; settings: Staphylococcus epidermidis
# From the text: as §2
# [17] = tested on: Streptococcus gr. G; test: MIC, serial dilution test; type: cell-based
# From the text: as §2
# [18] = tested on: bacteria; test: Antibacterial effect, general statements; type: cell-based; settings: general statement
# [19] = Stability in solution; type: physicochemical
# [20] = Solubility; type: physicochemical
# [21] = tested on: bacteria; settings: as described in the cited literature; cited from earlier work
# [22] = 10 μl of 10 mM solution on 6 mm disk
# [23] = 20 μl of 10 mM solution on 6 mm disk
# [24] = 40 μl of 10 mM solution on 6 mm disk
# [25] = compared with the antibacterial effect (Example 8)
molecule,measurement,setting,value
C/C=C/C=C/C1C(C)=CC2CC(C)CCC2C1(C)/C(O)=C1\C(=O)NC(C(C)O)C1=O (centres unmarked) [coniosetin],zone of inhibition at 10000 µM,[1]; [22],9 mm
same,zone of inhibition at 10000 µM,[1]; [23],10 mm
same,zone of inhibition at 10000 µM,[1]; [24],10.5 mm
same,Inhibitory effect on yeasts,[1]; [25],inhibitory effect—although weaker
same,zone of inhibition at 10000 µM,[2]; [22],13 mm
same,zone of inhibition at 10000 µM,[2]; [23],14.5 mm
same,zone of inhibition at 10000 µM,[2]; [24],15.5 mm
same,"Zone of inhibition, diameter",[3]; [23],0 mm
same,"Zone of inhibition, diameter",[3]; [24],0 mm
same,zone of inhibition at 10000 µM,"[3]; Escherichia coli, 10 μl of 10 mM solution on 6 mm disk, read-out: Zone of inhibition, diameter",0 mm
same,zone of inhibition at 10000 µM,[4]; [22],0 mm
same,zone of inhibition at 10000 µM,[4]; [23],9 mm
same,zone of inhibition at 10000 µM,[4]; [24],10 mm
same,zone of inhibition at 10000 µM,[5]; [22],0 mm
same,zone of inhibition at 10000 µM,[5]; [23],0 mm
same,zone of inhibition at 10000 µM,[5]; [24],8 mm
same,Inhibitory effect on fungi,[5]; [25],inhibitory effect—although weaker
same,Tolerability,[6],well-tolerated
same,MIC,[7]; 24 h,2.5 µg/mL
same,MIC,[7]; 48 h,2.5 µg/mL
same,MIC,[7]; after 18 h,2.5 µg/mL
same,MIC,"[8]; 18 h, S. aureus, oflR oxaR eryR tetR, after 18 h",0.6 µg/mL
same,MIC,"[8]; 18 h, S. aureus, oxa R ery R, after 18 h",0.3 µg/mL
same,MIC,"[8]; 18 h, S. aureus, oxa S ery R (first listed strain), after 18 h",0.3 µg/mL
same,MIC,"[8]; 18 h, S. aureus, oxa S ery R (second listed strain), after 18 h",0.6 µg/mL
same,MIC,"[8]; 18 h, S. aureus, oxaR eryR tetR, after 18 h",0.3 µg/mL
same,MIC,"[8]; 18 h, ery S, after 18 h",0.3 µg/mL
same,MIC,"[8]; 24 h, S. aureus, oflR oxaR eryR tetR",0.6 µg/mL
same,MIC,"[8]; 24 h, S. aureus, oxa R ery R",0.3 µg/mL
same,MIC,"[8]; 24 h, S. aureus, oxa S ery R (first listed strain)",0.3 µg/mL
same,MIC,"[8]; 24 h, S. aureus, oxa S ery R (second listed strain)",0.6 µg/mL
same,MIC,"[8]; 24 h, S. aureus, oxaR eryR tetR",0.3 µg/mL
same,MIC,"[8]; 24 h, ery S",0.3 µg/mL
same,MIC,"[8]; 48 h, S. aureus, oflR oxaR eryR tetR",0.6 µg/mL
same,MIC,"[8]; 48 h, S. aureus, oxa R ery R",0.3 µg/mL
same,MIC,"[8]; 48 h, S. aureus, oxa S ery R (first listed strain)",0.3 µg/mL
same,MIC,"[8]; 48 h, S. aureus, oxa S ery R (second listed strain)",0.6 µg/mL
same,MIC,"[8]; 48 h, S. aureus, oxaR eryR tetR",0.3 µg/mL
same,MIC,"[8]; 48 h, ery S",0.6 µg/mL
same,MIC,[9],> 40 µg/mL
same,MIC,"[10]; 18 h, ery R (first listed strain), after 18 h",0.6 µg/mL
same,MIC,"[10]; 18 h, ery R (second listed strain), after 18 h",0.6 µg/mL
same,MIC,"[10]; 18 h, ery R (third listed strain), after 18 h",0.6 µg/mL
same,MIC,"[10]; 18 h, ery R pen R (first listed strain), after 18 h",0.6 µg/mL
same,MIC,"[10]; 18 h, ery R pen R (second listed strain), after 18 h",0.6 µg/mL
same,MIC,"[10]; 18 h, ery S pen R, after 18 h",0.6 µg/mL
same,MIC,"[10]; 18 h, ery S, after 18 h",0.6 µg/mL
same,MIC,"[10]; 24 h, ery R (first listed strain)",0.6 µg/mL
same,MIC,"[10]; 24 h, ery R (second listed strain)",0.6 µg/mL
same,MIC,"[10]; 24 h, ery R (third listed strain)",0.6 µg/mL
same,MIC,"[10]; 24 h, ery R pen R (first listed strain)",0.6 µg/mL
same,MIC,"[10]; 24 h, ery R pen R (second listed strain)",0.6 µg/mL
same,MIC,"[10]; 24 h, ery S",0.6 µg/mL
same,MIC,"[10]; 24 h, ery S pen R",1.2 µg/mL
same,MIC,"[10]; 48 h, ery R (first listed strain)",0.6 µg/mL
same,MIC,"[10]; 48 h, ery R (second listed strain)",0.6 µg/mL
same,MIC,"[10]; 48 h, ery R (third listed strain)",1.2 µg/mL
same,MIC,"[10]; 48 h, ery R pen R (first listed strain)",0.6 µg/mL
same,MIC,"[10]; 48 h, ery R pen R (second listed strain)",0.6 µg/mL
same,MIC,"[10]; 48 h, ery S",0.6 µg/mL
same,MIC,"[10]; 48 h, ery S pen R",1.2 µg/mL
same,MIC,"[11]; 18 h, ery R, after 18 h",2.5 µg/mL
same,MIC,"[11]; 18 h, ery S, after 18 h",1.2 µg/mL
same,MIC,"[11]; 24 h, ery R",2.5 µg/mL
same,MIC,"[11]; 24 h, ery S",2.5 µg/mL
same,MIC,"[11]; 48 h, ery R",2.5 µg/mL
same,MIC,"[11]; 48 h, ery S",2.5 µg/mL
same,MIC,"[12]; 18 h, ery R, after 18 h",1.2 µg/mL
same,MIC,"[12]; 18 h, ery S, after 18 h",0.6 µg/mL
same,MIC,"[12]; 24 h, ery R",1.2 µg/mL
same,MIC,"[12]; 24 h, ery S",1.2 µg/mL
same,MIC,"[12]; 48 h, ery R",1.2 µg/mL
same,MIC,"[12]; 48 h, ery S",1.2 µg/mL
same,MIC,"[13]; ery R, 24 h",2.5 µg/mL
same,MIC,"[13]; ery R, 48 h",2.5 µg/mL
same,MIC,"[13]; ery R, after 18 h",2.5 µg/mL
same,MIC,"[13]; ery S, 24 h, read-out: MIC",2.5 µg/mL
same,MIC,"[13]; ery S, 48 h, read-out: MIC",2.5 µg/mL
same,MIC,"[13]; ery S, after 18 h, read-out: MIC",2.5 µg/mL
same,MIC,[14]; 24 h,1.2 µg/mL
same,MIC,[14]; 48 h,2.5 µg/mL
same,MIC,[14]; after 18 h,1.2 µg/mL
same,MIC,[15]; 24 h,1.2 µg/mL
same,MIC,[15]; 48 h,2.5 µg/mL
same,MIC,[15]; after 18 h,1.2 µg/mL
same,MIC,"[16]; 18 h, oxa R ery R, after 18 h",0.6 µg/mL
same,MIC,"[16]; 18 h, oxa S ery R, after 18 h",0.3 µg/mL
same,MIC,"[16]; 24 h, oxa R ery R",1.2 µg/mL
same,MIC,"[16]; 24 h, oxa S ery R",0.3 µg/mL
same,MIC,"[16]; 48 h, oxa R ery R",1.2 µg/mL
same,MIC,"[16]; 48 h, oxa S ery R",0.3 µg/mL
same,MIC,"[17]; 18 h, ery R, after 18 h",0.6 µg/mL
same,MIC,"[17]; 18 h, ery S, after 18 h",1.2 µg/mL
same,MIC,"[17]; 24 h, ery R",0.6 µg/mL
same,MIC,"[17]; 24 h, ery S",1.2 µg/mL
same,MIC,"[17]; 48 h, ery R",0.6 µg/mL
same,MIC,"[17]; 48 h, ery S",1.2 µg/mL
same,Antibacterial effect,[18],very good antibacterial activity
same,Stability,[19]; neutral and weakly acidic media,Stable
same,Stability,[19]; strongly acidic and strongly alkaline solution,unstable
same,Solubility in organic solvents,[20]; organic solvents of medium polarity and above,soluble
same,Solubility in water,[20]; water,low solubility
CCCCCCC/C=C/C(=O)N1C(O)=C(C(C)=O)C(=O)[C@H]1CC(C)C [reutericyclin],Antibacterial activity,[21],weak antibacterial activity
harzianic acid,Antibacterial activity,[21],very low activity
